Tests used:
[1] = test system: JJN3R multiple myeloma cell line; assay: Human tumor xenograft model in mice, JJN3R; assay type: in vivo; conditions: QD × 7
Description: All rodents were obtained from Jackson Laboratory. (Bar Harbor, Me.), and maintained in an ammonia-free environment in a defined and pathogen-free colony. All mice were quarantined approximately 1 week prior to their use for tumor propagation and drug efficacy testing. Mice were fed food and water ad libitum. The animal care program of Bristol-Myers Squibb Pharmaceutical Research Institute is fully accredited by the American Association for Accreditation of Laboratory Animal Care (AAALAC). All experiments were performed in accordance with Bristol-Myers Squibb (BMS) animal test methods and guidelines.
Tumor xenografts were grown and maintained subcutaneously (SC) in NSG (NOD scid IL2 receptor gamma chain knockout) mice (Jackson Lab). Tumors were propagated as subcutaneous transplants using tumor fragments obtained from donor mice.
The required numbers of animals needed to detect a meaningful response were pooled at the start of the experiment and each was given bilateral subcutaneous implants of two tumor fragments (˜20 mg) with a 13-gauge trocar. Tumors were allowed to grow to the pre-determined size window (tumors outside the range were excluded) and animals were evenly distributed to various treatment and control groups. There were typically 6-8 mice per treatment and control groups, consisting of 10-12 tumors. Treatment of each animal was based on individual body weight. Treated animals were checked daily for treatment related toxicity/mortality. Each group of animals was weighed before the initiation of treatment (Wt1) and then again following the last treatment dose (Wt2). The difference in body weight (Wt2−Wt1) provides a measure of treatment-related toxicity.
Tumor response was determined by measurement of tumors with a caliper twice a week, until the tumors reached a predetermined “target” size of 0.5 gm or 1 gm depending on the tumor type. Tumor weights (mg) were estimated from the formula: Tumor weight=(length×width^2)÷2
Tumor response criteria are expressed in terms of tumor growth inhibition (% TGI). Tumor growth delay is defined as the difference in time (days) required for the treated tumors (T) to reach a predetermined target size compared to those of the control group (C). For this purpose, the tumor weight of a group is expressed as medium tumor weight (MTW).
[formula] where, • Ct=Median control tumor size at end of treatment • C0=Median control tumor size at treatment initiation • Tt=Median tumor size of treated group at end of treatment • T0=Median tumor size of treated group at treatment initiation
Tumor response was also expressed in terms of tumor growth delay and expressed as log cell kill (LCK value), defined as the difference in time (days) required for the treated tumors (T) to reach a predetermined target size compared to those of the control group (C).
Whenever possible, antitumor activity was determined at a range of dose levels up to the maximum tolerated dose (MTD) which is defined as the dose level immediately […] which excessive toxicity (i.e. more than one death) occurred. When death occurred, the day of death was recorded. Treated mice dying prior to having their tumors reach target size were considered to have died from drug toxicity. No control mice died bearing tumors less than target size. Treatment groups with more than one death caused by drug toxicity were considered to have had excessively toxic treatments and their data were not included in the evaluation of a compound's antitumor efficacy.
For administration of BET inhibitors to rodents, compounds were dissolved in […]/10% TPGS/10% Ethanol. BET inhibitors were typically administered orally on a schedule of QD×7 or QD×10 (5 day-on-2 day-off), although other schedules had also been evaluated and shown to be efficacious

BRD4 = BRD4 (Homo sapiens, UniProt O60885); assay: Time Resolved Fluorescence Resonance Energy Transfer (TR-FRET) binding assay, BRD4; conditions: one of the FRET assays described; read-out: FRET BRD4 IC50

Row | Compound | % TGI ([1]; 1 mg/kg) [%] | LCK ([1]; 1 mg/kg) | LCK ([1]; 4 mg/kg) | IC50 (BRD4) [nM] | % TGI ([1]; 4 mg/kg) [%]
1 | [2H]C([2H])([2H])c1nnn(C)c1-c1cnc2c3ccc([C@](C)(O)C4CC4)c(F)c3n([C@H](c3ccccc3)C3CCOCC3)c2c1 [Example 434, (1R)-1-cyclopropyl-1-{6-fluoro-3-[4-(^2H3)methyl-1-methyl-1H-1,2,3-triazol-5-yl]-5-[(S)-oxan-4-yl(phenyl)methyl]-5H-pyrido[3,2-b]indol-7-yl}ethan-1-ol] | 82 | 0.5 |  |  | 
2 | [2H]C([2H])([2H])c1nnn(C)c1-c1cnc2c3ccc(S(C)(=O)=O)cc3n([C@H](c3ccccc3)C3CCOCC3)c2c1 [Example 263, 5-{7-Methanesulfonyl-5-[(S)-oxan-4-yl(phenyl)methyl]-5H-pyrido[3,2-b]indol-3-yl}-4-(^2H3)methyl-1-methyl-1H-1,2,3-triazole] |  | 0.2 | 0.3 | < 5 | 
3 | Cc1nnn(C)c1-c1cnc2c3ccc(C(C)(O)C4CC4)c(F)c3n([C@H](c3ccccc3F)C3CCOCC3)c2c1 (single isomer, unassigned) [Example 436] |  | 0.6 | 0.9 | < 5 | 
4 | [2H]C([2H])([2H])c1nnn(C)c1-c1cnc2c3ccc(C(C)(C)O)c(F)c3n([C@H](c3ccccc3)C3CCOCC3)c2c1 [Example 278, 2-{6-Fluoro-3-[4-(^2H3)methyl-1-methyl-1H-1,2,3-triazol-5-yl]-5-[(S)-oxan-4-yl(phenyl)methyl]-5H-pyrido[3,2-b]indol-7-yl}propan-2-ol] |  | 1 | >1.4 | < 5 | 
5 | [2H]C([2H])([2H])c1nnn(C)c1-c1cnc2c3ccc(C(C)(C)O)cc3n(C(c3ccccc3)C3CCC(F)(F)CC3)c2c1 (centres unmarked) [Example 203, 2-{5-[(4,4-Difluorocyclohexyl)(phenyl)methyl]-3-[4-(^2H3)methyl-1-methyl-1H-1,2,3-triazol-5-yl]-5H-pyrido[3,2-b]indol-7-yl}propan-2-ol] | 93 | 0.7 | >1.4 | < 5 | 105
6 | [2H]C([2H])([2H])c1nnn(C)c1-c1cnc2c3cc(F)c(C(C)(C)O)cc3n([C@H](c3ccccc3F)C3CCOCC3)c2c1 [Example 276, 2-{8-Fluoro-5-[(S)-(2-fluorophenyl)(oxan-4-yl)methyl]-3-[4-(^2H3)methyl-1-methyl-1H-1,2,3-triazol-5-yl]-5H-pyrido[3,2-b]indol-7-yl}propan-2-ol] |  | 0.3 | 1 | < 5 | 
7 | [2H]C([2H])([2H])c1nnn(C)c1-c1cnc2c3ccc([C@@](C)(O)C4CC4)c(F)c3n([C@H](c3ccccc3)C3CCOCC3)c2c1 [Example 433, (1S)-1-cyclopropyl-1-{6-fluoro-3-[4-(^2H3)methyl-1-methyl-1H-1,2,3-triazol-5-yl]-5-[(S)-oxan-4-yl(phenyl)methyl]-5H-pyrido[3,2-b]indol-7-yl}ethan-1-ol] | 54 | 0.5 |  |  | 
8 | [2H]C([2H])([2H])c1nnn(C)c1-c1cnc2c3cc(F)c(C(C)(C)O)cc3n([C@H](c3ccccc3)C3CCOCC3)c2c1 [Example 279, 2-{8-Fluoro-3-[4-(^2H3)methyl-1-methyl-1H-1,2,3-triazol-5-yl]-5-[(S)-oxan-4-yl(phenyl)methyl]-5H-pyrido[3,2-b]indol-7-yl}propan-2-ol] |  | 0.6 | >1.4 | < 5 | 
9 | Cc1nnn(C)c1-c1cnc2c3ccc([C@](C)(O)C4CC4)c(F)c3n([C@H](c3ccccc3)C3CCOCC3)c2c1 [Example 432, (1R)-1-cyclopropyl-1-[3-(dimethyl-1H-1,2,3-triazol-5-yl)-6-fluoro-5-[(S)-oxan-4-yl(phenyl)methyl]-5H-pyrido[3,2-b]indol-7-yl]ethan-1-ol] |  | 0.4 | 1.4 | < 5 | 
10 | Cc1nnn(C)c1-c1cnc2c3c(NS(C)(=O)=O)ccc(S(C)(=O)=O)c3n([C@H](c3ccccc3)C3CCOCC3)c2c1 [Example 216, N-[3-(dimethyl-1H-1,2,3-triazol-5-yl)-6-methanesulfonyl-5-[(S)-oxan-4-yl(phenyl)methyl]-5H-pyrido[3,2-b]indol-9-yl]methanesulfonamide] |  |  |  | < 5 | 
11 | [2H]C([2H])([2H])c1nnn(C)c1-c1cnc2c3c(S(C)(=O)=O)cc(F)c(F)c3n([C@H](c3ccccc3)C3CCOCC3)c2c1 [Example 161, 5-{6,7-Difluoro-9-methanesulfonyl-5-[(S)-oxan-4-yl(phenyl)methyl]-5H-pyrido[3,2-b]indol-3-yl}-4-(^2H3)methyl-1-methyl-1H-1,2,3-triazole] |  |  |  | < 5 | 
12 | [2H]C([2H])([2H])c1nnn(C)c1-c1cnc2c3c(OCC(F)F)ccc(S(C)(=O)=O)c3n(C(c3ncccc3F)C3CCOCC3)c2c1 (centres unmarked) [Example 245, 2-{[9-(2,2-Difluoroethoxy)-6-methanesulfonyl-3-[4-(^2H3)methyl-1-methyl-1H-1,2,3-triazol-5-yl]-5H-pyrido[3,2-b]indol-5-yl](oxan-4-yl)methyl}-3-fluoropyridine] |  |  |  | < 5 | 
13 | Cc1nnn(C)c1-c1cnc2c3ccc(C(C)(C)O)cc3n(C(c3ccc(F)c(F)c3)C3CCOCC3)c2c1 (single isomer, unassigned) [Example 96, 2-{5-[(3,4-Difluorophenyl)(oxan-4-yl)methyl]-3-(dimethyl-1H-1,2,3-triazol-5-yl)-5H-pyrido[3,2-b]indol-7-yl}propan-2-ol] |  |  |  | < 25 | 
14 | [2H]C([2H])([2H])Oc1ccc(S(=O)(=O)C([2H])([2H])[2H])c2c1c1ncc(-c3c(C)nnn3C)cc1n2[C@H](c1ccccc1)C1CCOCC1 [Example 184, 5-[6-(^2H3)Methanesulfonyl-9-(^2H3)methoxy-5-[(S)-oxan-4-yl(phenyl)methyl]-5H-pyrido[3,2-b]indol-3-yl]-1,4-dimethyl-1H-1,2,3-triazole] |  |  |  | < 5 | 
15 | Cc1noc(C)c1-c1cnc2c3ccccc3n(Cc3ccccc3)c2c1 [Example 51, 4-(5-Benzyl-5H-pyrido[3,2-b]indol-3-yl)-3,5-dimethyl-1,2-oxazole] |  |  |  | < 1500 | 
16 | Cc1nnn(C)c1-c1cnc2c3ccc(C(C)(C)O)cc3n(C(c3c(F)cc(F)cc3F)C3CCOCC3)c2c1 (single isomer, unassigned) [Example 103, 2-[3-(Dimethyl-1H-1,2,3-triazol-5-yl)-5-[oxan-4-yl(2,4,6-trifluorophenyl)methyl]-5H-pyrido[3,2-b]indol-7-yl]propan-2-ol] |  |  |  | < 5 | 
17 | Cc1nnn(C)c1-c1cnc2c3ccc(C4(O)COC4)cc3n([C@H](c3ccc(F)cc3)C3CCOCC3)c2c1 [Example 243, 3-[3-(Dimethyl-1H-1,2,3-triazol-5-yl)-5-[(S)-(4-fluorophenyl)(oxan-4-yl)methyl]-5H-pyrido[3,2-b]indol-7-yl]oxetan-3-ol] |  |  |  | < 5 | 
18 | [2H]C([2H])([2H])c1nnn(C)c1-c1cnc2c3ccc(C(C)(O)C4CC4)c(F)c3n([C@H](c3ccccc3F)C3CCOCC3)c2c1 (single isomer, unassigned) [Example 438] |  |  |  | < 5 | 
19 | Cc1nnn(C)c1-c1cnc2c3ccc(C(C)(C)O)cc3n(C(c3c(F)cccc3F)C3CCOCC3)c2c1 (single isomer, unassigned) [Example 134, 2-{5-[(2,6-Difluorophenyl)(oxan-4-yl)methyl]-3-(dimethyl-1H-1,2,3-triazol-5-yl)-5H-pyrido[3,2-b]indol-7-yl}propan-2-ol] |  |  |  | < 5 | 
20 | Cc1nnn(C)c1-c1cnc2c3c(F)cc(S(C)(=O)=O)cc3n([C@H](c3ccccc3)C3CCOCC3)c2c1 [Example 194, 5-{9-Fluoro-7-methanesulfonyl-5-[(S)-oxan-4-yl(phenyl)methyl]-5H-pyrido[3,2-b]indol-3-yl}-1,4-dimethyl-1H-1,2,3-triazole] |  |  |  | < 5 | 
